# Test results published in US6903098B1, “Use of phthalazine derivatives” (Abbott GmbH & Co., priority 1999, dated 2005).
# Test system: PARP 1
# Experiment: HTRF assay for PARP 1 inhibitory effect
# Format: biochemical, human or bovine
# Conditions: at 10 μM
# Text: In the HTRF PARP assay according to the invention, histones, as target proteins for modification by PARP, are labeled indirectly with an XL665 fluorophore. The antibody is labeled directly with a europium cryptate. If the XL665 fluorophore is in the direct vicinity in space, which is ensured by binding to the poly(ADP-ribose) on the histone, then an energy transfer is possible. The emission at 665 nm is thus directly proportional to the amount of bound antibody, which in turn is equivalent to the amount of poly(ADP-ribose). The measured signal thus corresponds to the PARP activity. The principle of measurement is depicted diagrammatically in FIG. 7. The materials used are identical to those used in the ELISA (see above) unless expressly stated.
# Histones were dissolved in a concentration of 3 mg/ml in Hepes buffer (50 mM, pH=7.5). Biotinylation took place with sulfo-NHS-LC-biotin (Pierce, #21335T). A molar ratio of 4 biotin per histone was used. The incubation time was 90 minutes (RT). The biotinylated histones were then purified on a G25 SF HR10/10 column (Pharmacia, 17-0591-01) in Hepes buffer (50 mM, pH=7.0) in order to remove excess biotinylation reagent. […]
# Measurement was then possible after 30 minutes (up to 4 hours). […] The Ki values were calculated as described for the ELISA. […]
smiles,measurement,value
O=c1[nH]nc(CN2CCN(c3ccccc3)CC2)c2ccccc12 [4-(4-phenylpiperazin-1-yl)methyl-2H-phthalazin-1-one],inhibition of PARP 1,38%
